In patent publication US10253080B2, “Glucagon-like-peptide-2 (GLP-2) analogues” (Zealand Pharma A/S, priority 2012, dated 2019):
Non-standard residues stand in square brackets, D forms with d. Residues, ends and D or L forms follow the SMILES beside them. Aib = CC(C)(N)C(=O)O

What was measured:
[1] = biological target: T1, human GLP-1 receptor (Homo sapiens, UniProt P43220); test: GLP-1 receptor efficacy assay (cAMP AlphaScreen); format: cell-based; conditions: HEK293 cells expressing human GLP-1R, cAMP response
T1 construct: expressed in transfected cells; host or cells: HEK293
Description: The 5′-end primers additionally encoded a near Kozak consensus sequence to ensure efficient translation. […] 48 hours after transfection, cells were seeded for limited dilution cloning and selected with 1 mg/ml G418 in the culture medium.
(§1) Data from test compounds eliciting an increase in the intracellular level of cAMP were normalized relative to the positive and negative control (vehicle) to calculate the EC50 and maximal response from the concentration response curve.

[2] = biological target: T2, human GLP-2 receptor (Homo sapiens, UniProt O95838, D470N); test: GLP-2 receptor efficacy assay (cAMP AlphaScreen); format: cell-based; conditions: HEK293 cells expressing hGLP-2 receptor, cAMP response; read-out: GLP-2R EC50
T2 construct: host or cells: HEK293
T2 sequence (O95838 1-553 D470N): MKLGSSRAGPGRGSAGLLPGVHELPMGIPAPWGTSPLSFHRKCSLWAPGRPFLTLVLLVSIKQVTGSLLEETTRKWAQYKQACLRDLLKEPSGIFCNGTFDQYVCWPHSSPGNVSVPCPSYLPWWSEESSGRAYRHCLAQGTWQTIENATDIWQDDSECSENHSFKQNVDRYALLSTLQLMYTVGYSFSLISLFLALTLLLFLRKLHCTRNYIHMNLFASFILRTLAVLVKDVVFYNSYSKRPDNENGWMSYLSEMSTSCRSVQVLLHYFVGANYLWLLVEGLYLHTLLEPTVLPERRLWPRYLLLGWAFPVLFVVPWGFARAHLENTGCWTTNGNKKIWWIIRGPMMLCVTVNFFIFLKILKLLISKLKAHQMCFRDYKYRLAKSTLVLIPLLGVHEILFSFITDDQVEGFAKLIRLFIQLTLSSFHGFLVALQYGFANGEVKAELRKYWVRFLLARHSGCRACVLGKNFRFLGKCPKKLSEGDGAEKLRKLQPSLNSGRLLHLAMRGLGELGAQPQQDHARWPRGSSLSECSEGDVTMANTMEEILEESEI
Description: Test compounds inducing an increase in the intracellular level of cAMP were tested in this assay, and the response normalized relative to a positive and negative control to calculate the EC50 and maximal response from the concentration response curve.
The hGLP2-R was purchased from MRC-geneservice, Babraham, Cambridge as an image clone: 5363415 (11924-117). For subcloning into an mammalian expression vector, primers for subcloning were obtained from DNA-Technology, Risskov, Denmark. The 5′ and 3′ primers used for the PCR reaction include terminal restriction sites for cloning and the context of the 5′ primer is modified to a Kozak consensus without changing the sequence of the product encoded by the ORF. A standard PCR reaction was run using image clone 5363415 (11924-117) as a template with the above mentioned primers and Polymerase Herculase II Fusion in a total vol, of 50 μl. The generated PCR product was purified using GFX PCR and Gel band purification kit, digested with restriction enzymes and cloned into the mammalian expression vector using Rapid DNA Ligation Kit. Ligation reaction was transformed to XL10 Gold Ultracompetent cells and colonies were picked for DNA production using Endofree Plasmid maxi kit. Subsequent sequence analysis was conducted by MWG Eurofins, Germany.
HEK293 cells were transfected using the Lipofectamine PLUS transfection method. The day before transfection, HEK293 cells were seeded in two T75 flasks at a density of 2×10^6 cells/T75 flask in cell culturing medium without antibiotics. On the day of transfection, cells were washed with 1×DPBS and medium was replaced with Optimem to a volume of 5 mL/T75 flask before addition of Lipofectamine-plasmid complexes were added gently and drop wise to the cells in T75 flasks and replaced with growth medium after 3 hours and again to growth medium supplemented with 500 μg/mL G418 after 24 hours. After 4 weeks in G418 selection, colonies were picked and tested in a functional assay. One colony was selected for use in compound profiling.
as §1

[3] = Effect on intestinal weight in normal rats; format: in vivo, Wistar male rats; conditions: SC once daily for four days, weighed day 5; FIG. 3
Description: Normal chow-fed Wistar male rats were used. The rats were kept in standard housing conditions (light-, temperature-, and humidity-controlled room (12:12 h light-dark cycle, with lights on at 06.00-18.00 h; 24° C.; 50% relative humidity)), and each dosing group consisted of 6 animals. Rats were dosed once daily via the subcutaneous route, for four days with compound at the indicated amount or PBS (vehicle). On day five, rats were sacrificed and small intestinal weight wet measured.

[4] = Effect in diet-induced obese mice (intestinal mass, glucose homeostasis); format: in vivo, C57BL/6J male mice; conditions: SC twice daily for 14 days
Description: Diet-induced obesity was generated by feeding C57BL/6J male mice with high fat diet (Research Diet 60% fat (D12492) Research Diet Inc., New Brunswick, USA). The mice were kept in standard housing conditions (light-, temperature-, and humidity-controlled room (12:12 h light-dark cycle, with lights on at 06.00-18.00 h; 24° C.; 50% relative humidity)).
The vehicle treated dosing group contained 8 animals and the compound 7 treated groups consisted of 12 animals/group. All animals were mock treated for 7 days (once daily, SC, 100 μl vehicle) to acclimatize the animals to handling and injections, followed by treatment (vehicle or compound 7) for 14 days (twice daily, SC, 5 ml/kg). Animals were fasted overnight (day 11-12) and blood was drawn for analysis of glucose and insulin. On day 14, animals were sacrificed and small and large intestines removed, washed and weighed.

[5] = DPP IV degradation and renal clearance (Tavares et al. 2000); cited from earlier work
[6] = Oral glucose tolerance test (OGTT) in normal mice; format: in vivo, C57BL/6J male mice; conditions: single SC dose 1 h before 2 g/kg oral glucose; vs vehicle; FIG. 2
Description: Normal chow-fed C57BL/6J male mice were used. The mice were kept in standard housing conditions (light-, temperature-, and humidity-controlled room (12:12 h light-dark cycle, with lights on at 06.00-18.00 h; 24° C.; 50% relative humidity)), and each dosing group consisted of 10 animals.
Prior to the oral glucose tolerance test (OGTT), animals were fasted for 5 h. One hour before glucose challenge (time t=−60 min) baseline blood glucose was measured. Immediately after the blood sample, the animals were dosed once subcutaneously with compound at the indicated amount or PBS (vehicle). One hour later at t=0 min, a 2 g/kg oral gavage of glucose (0.4 g/ml in water diluted from glucose SAD […]; dose volume 5 ml/kg) was given to the animals. After glucose administration, tail vein blood was drawn for glucose measurements at t=15, 30, 60, 120 min.

[7] = biological target: human GLP-2 receptor (hGLP2-R), splice variant rs17681684 (human, UniProt O95838); test: cell-based or functional assay

T1 sequence (P43220 24-463): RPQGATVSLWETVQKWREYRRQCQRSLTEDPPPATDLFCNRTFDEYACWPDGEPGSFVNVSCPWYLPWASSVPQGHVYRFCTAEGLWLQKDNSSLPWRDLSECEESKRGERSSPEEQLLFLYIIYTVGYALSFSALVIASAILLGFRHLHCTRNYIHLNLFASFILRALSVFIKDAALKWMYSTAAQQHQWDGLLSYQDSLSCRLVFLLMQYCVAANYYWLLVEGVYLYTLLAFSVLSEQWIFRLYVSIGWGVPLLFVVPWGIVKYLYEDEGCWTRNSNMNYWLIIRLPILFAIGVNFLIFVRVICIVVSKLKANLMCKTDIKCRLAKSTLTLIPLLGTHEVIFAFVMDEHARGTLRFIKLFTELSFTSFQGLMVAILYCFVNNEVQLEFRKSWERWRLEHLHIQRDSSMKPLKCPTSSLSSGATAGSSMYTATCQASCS

Molecule	EC50 [1] [nM]	EC50 [2] [nM]	further results
H-HGDGSFSSELATILDGQAARDFIAWLIQTKITD-OH [Compound 11] [listing 1 of 2 here]	0.34		
CC[C@H](C)[C@H](NC(=O)[C@H](Cc1ccccc1)NC(=O)[C@H](CC(=O)O)NC(=O)[C@H](CCCNC(=N)N)NC(=O)[C@H](C)NC(=O)[C@H](C)NC(=O)[C@H](CC(C)C)NC(=O)[C@H](CC(N)=O)NC(=O)[C@H](CC(=O)O)NC(=O)[C@H](CC(C)C)NC(=O)[C@@H](NC(=O)[C@@H](NC(=O)[C@H](CC(N)=O)NC(=O)[C@H](CCSC)NC(=O)[C@H](CCC(=O)O)NC(=O)[C@H](CC(=O)O)NC(=O)[C@H](CO)NC(=O)[C@H](Cc1ccccc1)NC(=O)[C@H](CO)NC(=O)CNC(=O)[C@H](CC(=O)O)NC(=O)CNC(=O)[C@@H](N)Cc1c[nH]cn1)[C@@H](C)O)[C@@H](C)CC)C(=O)N[C@@H](CC(N)=O)C(=O)N[C@@H](Cc1c[nH]c2ccccc12)C(=O)N[C@@H](CC(C)C)C(=O)N[C@H](C(=O)N[C@@H](CCC(N)=O)C(=O)N[C@H](C(=O)N[C@@H](CCCCN)C(=O)N[C@H](C(=O)N[C@H](C(=O)N[C@@H](CC(=O)O)C(=O)O)[C@@H](C)O)[C@@H](C)CC)[C@@H](C)O)[C@@H](C)CC [GLP-2 (Gly2), reference compound]	> 200		
H-HGEGTFTSDLSTILENKAARDFIEWLIQTKITD-OH [Compound 8] [listing 1 of 2 here]		0.008	
H-HGEGTFTSDLSKQMEGQAVRDFIEWLIQTKITD-OH [Compound 5] [listing 1 of 2 here]		0.2	
H-HGDGSFSSELATILDGKAARDFINWLIQTKITD-OH [Compound 7] [listing 1 of 2 here]	0.78		small intestinal wet weight [3]: increased intestinal weight in a dose dependant manner; fasting blood glucose ([4]; overnight fast day 11-12, vs vehicle, FIG. 5A): reduced; fasting plasma insulin levels ([4]; overnight fast day 11-12, vs vehicle, FIG. 5B): reduced; small intestinal mass ([4]; vs vehicle, FIG. 4A): significantly increased; large intestinal mass ([4]; vs vehicle, FIG. 4B): significantly increased; HOMA-IR index ([4]; vs vehicle, FIG. 5C): lower HOMA-IR index than vehicle treated controls
H-HGDGSFSSEMNTILDSQAARDFINWLIQTKITD-OH [Compound 4] [listing 1 of 2 here]	25		
His-Ala-Asp-Gly-Ser-Phe-Ser-Asp-Glu-Met-Asn-Thr-Ile-Leu-Asp-Asn-Leu-Ala-Ala-Arg-Asp-Phe-Ile-Asn-Trp-Leu-Ile-Gln-Thr-Lys-Ile-Thr-Asp [GLP-2(1-33)]			half life [5]: about 7 minutes
H-HGEGSFSSDLSTILEGKAARDFIEWLIQTKITD-OH [Compound 13] [listing 1 of 2 here]		0.1	
H-HGDGSFSDEMNTILDGQAARDFINWLIQTK-NH2 [Compound 12]	0.07		blood glucose response in OGTT [6]: significantly reduced the blood glucose response
H-HGDGSFSSELATILDGQAARDFIAWLIQTKITD-OH [Compound 11] [listing 2 of 2 here]		0.2	
H-HGEGTFTSDLSKQMEGQAVRDFIEWLIQTKITD-OH [Compound 5] [listing 2 of 2 here]	1		
H-HGDGSFSSEMNTILDSQAARDFINWLIQTKITD-OH [Compound 4] [listing 2 of 2 here]		0.06	
H-HGEGSFSSDLSTILEGKAARDFIEWLIQTKITD-OH [Compound 13] [listing 2 of 2 here]	18		
CC[C@H](C)[C@H](NC(=O)[C@H](Cc1ccccc1)NC(=O)[C@H](CC(=O)O)NC(=O)[C@H](CCCNC(=N)N)NC(=O)[C@H](C)NC(=O)[C@H](C)NC(=O)[C@H](CCCCN)NC(=O)CNC(=O)[C@H](CC(=O)O)NC(=O)[C@H](CC(C)C)NC(=O)[C@@H](NC(=O)[C@@H](NC(=O)[C@H](CC(N)=O)NC(=O)[C@H](CC(C)C)NC(=O)[C@H](CCC(=O)O)NC(=O)[C@H](CC(=O)O)NC(=O)[C@H](CO)NC(=O)[C@H](Cc1ccccc1)NC(=O)[C@H](CO)NC(=O)CNC(=O)[C@H](CC(=O)O)NC(=O)C(C)(C)NC(=O)[C@@H](N)Cc1c[nH]cn1)[C@@H](C)O)[C@@H](C)CC)C(=O)N[C@@H](CC(N)=O)C(=O)N[C@@H](Cc1c[nH]c2ccccc12)C(=O)N[C@@H](CC(C)C)C(=O)N[C@H](C(=O)N[C@@H](CCC(N)=O)C(=O)N[C@H](C(=O)N[C@@H](CCCCN)C(N)=O)[C@@H](C)O)[C@@H](C)CC [Compound 10] (H-H[Aib]DGSFSDELNTILDGKAARDFINWLIQTK-NH2)	0.03		
H-HGDGSFSDEMNTILDGQAARDFINWLIQTK-NH2 [Compound 3]	9		
H-HGEGSFSSDLSTILENKAARDFIEWLIQTKITD-OH [Compound 9] [listing 1 of 2 here]		0.2	
H-HGEGTFTSDLSKQMESKAARDFIEWLIQTKITD-OH [Compound 6]		0.2	
H-HGEGSFSSDLSTILENKAARDFIEWLIQTKITD-OH [Compound 9] [listing 2 of 2 here]	9.1		
H-HGEGTFTSDLSTILENKAARDFIEWLIQTKITD-OH [Compound 8] [listing 2 of 2 here]	16		
H-HGDGSFSSELATILDGKAARDFINWLIQTKITD-OH [Compound 7] [listing 2 of 2 here]		0.2	
HDEFERHAEGTFTSDVSSYLEGQAAKEFIAWLVKGRG [GLP-1]			GLP-2R EC50 (nM), cAMP AlphaScreen [7]: > 1000 nM
